Source: patent publication US7214696B2, “Compositions and methods for stabilizing transthyretin and inhibiting transthyretin misfolding” (The Scripps Research Institute, priority 2002, dated 2007)

Legend:
[1] = molecular target: T1, TTR in human blood plasma (Homo sapiens, UniProt P02766); experiment: Immunoprecipitation/HPLC binding stoichiometry of PCBs and OH-PCBs in plasma, Example 4; set-up: from tissue; host or cells: human blood plasma from healthy volunteers; settings: post-wash lower limit; for Equivalents Bound: PCB 10.8 μM in human blood plasma, TTR ≈5 μM; for Equivalents Bound (Plasma): OH-PCB 10.8 μM in human blood plasma
[2] = molecular target: T2, TTR in whole blood (Homo sapiens, UniProt P02766); experiment: Binding stoichiometry of OH-PCBs in whole blood, Example 4
T2 construct: Whole blood was drawn from healthy volunteers; from tissue; host or cells: human whole blood from healthy volunteers
Source text: Up to two PCBs can bind to the two identical thyroid hormone binding sites in a TTR tetramer. […] Several of the hydroxylated PCBs (e.g., 16 and 22) approach a binding stoichiometry of 2.

[3] = molecular target: WT TTR (Homo sapiens, UniProt P02766); experiment: Transthyretin amyloid fibril formation assay (pH 4.4, 72 h, OD 400 nm), Example 4; format: biochemical; settings: equimolar inhibitor and TTR concentration (3.6 μM)
Method: TTR secreted into blood from the liver appears to be the source of systemic TTR amyloid. While it is not yet clear where or how amyloid is formed in humans, the typical denaturant in cells is acid, which is effective in converting nearly all amyloidogenic peptides and proteins into amyloid and/or related aggregates. […] Hydroxylated PCBs and PCB 3 were highly efficacious as TTR fibril inhibitors. At an inhibitor concentration equal to the WT TTR concentration (3.6 μM), only 12–50% of the normal amount of fibril formation was observed after a 72 h incubation period.
The compounds were dissolved in DMSO at a concentration of 720 μM. Five μL of a solution of the compound being evaluated was added to 0.5 mL of a 7.2 μM TTR solution in 10 mM phosphate pH 7.6, 100 mM KCl, 1 mM EDTA buffer, allowing the compound to incubate with TTR for 30 min. 495 μL of […] acetate pH 4.2, 100 mM KCl, 1 mM EDTA was added, to yield final protein and inhibitor concentrations of 3.6 μM each and a pH of 4.4. The mixture was then incubated at 37° C. for 72 h, after which the tubes were vortexed for 3 sec and the optical density was measured at 400 nm. The extent of fibril formation was determined by normalizing each optical density by that of TTR without inhibitor, defined to be 100% fibril formation. Control solutions of each compound in the absence of TTR were also tested and none absorbed appreciably at 400 nm.

[4] = molecular target: T3, WT TTR tetramer (Homo sapiens, UniProt P02766); experiment: WT TTR tetramer dissociation rate in 6 M urea, Example 1; format: biochemical; settings: TTR 1.8 μM
Method: Tetramer dissociation rates were measured by linking slow quaternary structural changes to the unfolding transition, with a rate of 5×10^5 times that of dissociation (Hammarström et al., Proc. Natl. Acad. Sci. U.S.A. 99, 16427 (2002)). Denaturation-detected dissociation is irreversible because the concentration of urea used (>6.0 M) cannot support refolding.

[5] = molecular target: T1, TTR in human blood plasma; experiment: Plasma selectivity: antibody capture/HPLC binding stoichiometry, Example 2; settings: 10.8 μM inhibitor in human plasma, 37° C., 24 h; post-wash lower limit; maximum 2 per TTR tetramer
[6] = molecular target: T1, TTR in human blood plasma; format: binding; set-up: from tissue; host or cells: human blood plasma from healthy volunteers; settings: test compound 10.8 μM, 24 h, 37° C.
Method: Human blood plasma (TTR conc. 3.6–5.4 μM) was incubated for 24 h with the test compound (10.8 μM) at 37° C. The TTR and any bound inhibitor were immunoprecipitated using a sepharose-bound polyclonal TTR antibody. The TTR with or without inhibitor bound was liberated from the resin at high pH, and the inhibitor:TTR stoichiometry was ascertained by HPLC analysis (FIG. 8).

[7] = molecular target: T3, WT TTR tetramer; experiment: TTR tetramer dissociation kinetics by linked monomer unfolding in 6.5 M urea (far-UV CD), Example 2; settings: 3.6 μM TTR, 3.6 or 7.2 μM inhibitor, 168 h time-course

In the case of “2′,4′-Difluorobiphenyl-3-ol [Compound 2]”, the “Equivalents Bound” value [1] was 0.18 ± 0.03.

With “2′,4′-Difluorobiphenyl-4-carboxylic acid [Compound 12]” the “Equivalents Bound (Blood)” value [2] was 1.47 and the “Equivalents Bound (Plasma)” value [1] was 1.23 ± 0.24.

With “2′,6′-Difluorobiphenyl-3-carboxylic acid [Compound 19]” the “Equivalents Bound (Blood)” value [2] was 1.55 and the “Equivalents Bound (Plasma)” value [1] was 1.48 ± 0.16.

With “2′-Fluorobiphenyl-3-carboxylic acid [Compound 15]” the “Equivalents Bound (Blood)” value [2] was 0.56, the “efficacy as fibril inhibitor” value [3] was “among the highest observed to date” and the “Equivalents Bound (Plasma)” value [1] was 0.70 ± 0.17.

In the case of “2′-Fluorobiphenyl-4-carboxylic acid [Compound 16]”, the “Equivalents Bound (Plasma)” value [1] was 1.86 ± 0.14.

In the case of “3′,5′-Difluorobiphenyl-3-carboxylic acid [Compound 17]”, the “Equivalents Bound (Plasma)” value [1] was 1.63 ± 0.05.

For “3′,5′-Difluorobiphenyl-3-ol [Compound 8]”, the “protection of the tetramer from dissociation in 6 M urea by T·I and T·I2” value (“protection of the tetramer” for short) [4] was “did not protect the tetramer substantially from dissociation in urea” and the “Equivalents Bound” value [1] was “No Binding”.

With `Oc1ccc(-c2ccc(F)cc2F)cc1` [Compound 3, 2′,4′-Difluorobiphenyl-4-ol] the “Equivalents Bound” value [1] was 1.50 ± 0.42.

With `O=C(O)c1cccc2oc(-c3cc(Cl)cc(Cl)c3)nc12` [Compound 5] the “Equivalents Bound” value [1] was 0.06 ± 0.04.

In the case of `O=C(O)c1cccc2oc(-c3c(Cl)cccc3Cl)nc12` [Compound 6], the “protection of the tetramer” value [4] was “prevented tetramer dissociation in 6 M urea” and the “Equivalents Bound” value [1] was 0.19 ± 0.11.

In the case of `O=C(O)c1cccc2oc(-c3ccccc3)nc12` [Compound 7], the “protection of the tetramer” value [4] was “prevented tetramer dissociation in 6 M urea” and the “Equivalents Bound” value [1] was “No Binding”.

`Oc1cccc(-c2cc(F)cc(F)c2)c1` [Compound 8, 3′,5′-Difluorobiphenyl-3-ol] was tested, and the “Plasma Selectivity (equiv bound)” value [5] was 0.18 ± 0.05 equiv bound.

`O=C(O)c1cccc(-c2ccc(F)cc2F)c1` [Compound 11, 2′,4′-Difluorobiphenyl-3-carboxylic acid] was tested, and the “Plasma Selectivity (equiv bound)” value [5] was “none observed”, the “Equivalents Bound (Blood)” value [2] was 1.20 and the “inhibitor:TTR binding stoichiometry in human blood plasma” value [6] was “displayed the highest binding stoichiometries”. For the same molecule, the “Equivalents Bound (Plasma)” value [1] was 1.12 ± 0.22.

In the case of `O=C(O)c1ccc(-c2ccc(F)cc2F)cc1` [Compound 12, 2′,4′-Difluorobiphenyl-4-carboxylic acid], the “Plasma Selectivity (equiv bound)” value [5] was 0.20 ± 0.05 equiv bound.

With `O=C(O)c1ccc2oc(-c3c(Cl)cccc3Cl)nc2c1` [Compound 13] the “Equivalents Bound (Blood)” value [2] was 0.86, the “inhibitor:TTR binding stoichiometry in human blood plasma” value [6] was “displayed the highest binding stoichiometries” and the “Equivalents Bound (Plasma)” value [1] was 0.84 ± 0.24.

For `O=C(O)c1ccc2oc(-c3ccccc3)nc2c1` [Compound 14], the “Equivalents Bound (Blood)” value [2] was 0.73, the “efficacy as fibril inhibitor” value [3] was “among the highest observed to date” and the “Equivalents Bound (Plasma)” value [1] was 0.81 ± 0.29.

With `O=C(O)c1cccc(-c2ccccc2F)c1` [Compound 15, 2′-Fluorobiphenyl-3-carboxylic acid] the “Plasma Selectivity (equiv bound)” value [5] was “none observed”.

With `O=C(O)c1ccc(-c2ccccc2F)cc1` [Compound 16, 2′-Fluorobiphenyl-4-carboxylic acid] the “Plasma Selectivity (equiv bound)” value [5] was 0.08 ± 0.00 equiv bound and the “effect on TTR tetramer dissociation in 6.5 M urea” value (shortened to “effect”) [7] was “affinity is insufficient to affect kinetic stabilization”.

`O=C(O)c1cccc(-c2cc(F)cc(F)c2)c1` [Compound 17, 3′,5′-Difluorobiphenyl-3-carboxylic acid] was tested, and the “Plasma Selectivity (equiv bound)” value [5] was 0.23 ± 0.00 equiv bound.

`O=C(O)c1cccc(-c2c(F)cccc2F)c1` [Compound 19, 2′,6′-Difluorobiphenyl-3-carboxylic acid] was tested, and the “Plasma Selectivity (equiv bound)” value [5] was 0.29 ± 0.12 equiv bound.

For `O=C(O)c1ccc(-c2ccccc2)cc1` [Compound 22, Biphenyl-4-carboxylic acid], the “Plasma Selectivity (equiv bound)” value [5] was 0.08 ± 0.01 equiv bound, the “Equivalents Bound (Blood)” value [2] was 1.69 and the “Equivalents Bound (Plasma)” value [1] was 1.67 ± 0.40.

With `O=C(O)c1cc(-c2ccc(F)cc2)ccc1O` [Compound 23, 4′-Fluoro-4-hydroxybiphenyl-3-carboxylic acid] the “Plasma Selectivity (equiv bound)” value [5] was 0.09 ± 0.00 equiv bound.

With `O=C(O)c1cc(-c2ccccc2F)ccc1O` [Compound 24, 2′-Fluoro-4-hydroxybiphenyl-3-carboxylic acid] the “Plasma Selectivity (equiv bound)” value [5] was 0.07 ± 0.02 equiv bound.

`O=C(O)c1cc(-c2cc(F)cc(F)c2)ccc1O` [Compound 25, 3′,5′-Difluoro-4-hydroxybiphenyl-3-carboxylic acid] was tested, and the “Plasma Selectivity (equiv bound)” value [5] was “none observed”.

With `O=C(O)c1cc(-c2ccc(Cl)cc2Cl)ccc1O` [Compound 26, 2′,4′-Dichloro-4-hydroxybiphenyl-3-carboxylic acid] the “Plasma Selectivity (equiv bound)” value [5] was 0.27 ± 0.02 equiv bound.

With `O=C(O)c1cc(-c2ccccc2)ccc1O` [Compound 27, 4-Hydroxybiphenyl-3-carboxylic acid] the “Plasma Selectivity (equiv bound)” value [5] was “none observed”.

For `O=C(O)c1cccc(-c2cc(F)c(O)c(F)c2)c1` [Compound 28, 3′,5′-Difluoro-4′-hydroxybiphenyl-3-carboxylic acid], the “Plasma Selectivity (equiv bound)” value [5] was “none observed”.

With `O=C(O)c1ccc(-c2cc(F)c(O)c(F)c2)cc1` [Compound 29, 3′,5′-Difluoro-4′-hydroxybiphenyl-4-carboxylic acid] the “Plasma Selectivity (equiv bound)” value [5] was 0.07 ± 0.02 equiv bound.

With `O=C(O)c1cccc(-c2cc(Cl)c(O)c(Cl)c2)c1` [Compound 30, 3′,5′-Dichloro-4′-hydroxybiphenyl-3-carboxylic acid] the “Plasma Selectivity (equiv bound)” value [5] was 0.12 ± 0.02 equiv bound.

With `O=C(O)c1ccc(-c2cc(Cl)c(O)c(Cl)c2)cc1` [Compound 31, 3′,5′-Dichloro-4′-hydroxybiphenyl-4-carboxylic acid] the “Plasma Selectivity (equiv bound)” value [5] was 0.26 ± 0.04 equiv bound.

`O=Cc1cccc(-c2cc(Cl)cc(Cl)c2)c1` [Compound 39, 3′,5′-Dichloro-3-formylbiphenyl] was tested, and the “Plasma Selectivity (equiv bound)” value [5] was 1.30 ± 0.15 equiv bound and the “effect” value [7] was “overall reduction in the extent of tetramer dissociation”.

In the case of `O=Cc1ccccc1-c1cc(Cl)cc(Cl)c1` [Compound 41, 3′,5′-Dichloro-2-formylbiphenyl], the “Plasma Selectivity (equiv bound)” value [5] was 1.96 ± 0.11 equiv bound and the “effect” value [7] was “overall reduction in the extent of tetramer dissociation”.

For `OCc1ccc(-c2cc(Cl)cc(Cl)c2)cc1` [Compound 49, 3′,5′-Dichlorobiphenyl-4-yl-methanol], the “Plasma Selectivity (equiv bound)” value [5] was 0.54 ± 0.10 equiv bound and the “effect” value [7] was “overall reduction in the extent of tetramer dissociation”.

`OCc1ccccc1-c1cc(Cl)cc(Cl)c1` [Compound 50, 3′,5′-Dichlorobiphenyl-2-yl-methanol] was tested, and the “Plasma Selectivity (equiv bound)” value [5] was “none observed”.

`O=C(O)c1cc(-c2ccc(F)cc2F)ccc1O` [diflunisal, reference compound] was tested, and the “Equivalents Bound” value [1] was 0.62 ± 0.12.
